Values of other authors, collected in US20250143325A1, “PLANT-BASED INSECT REPELLENT AND USES THEREOF” (PIC Corporation, priority 2023, published 2025).

Columns and labels:
[1] = test system: storage food mite, Tyrophagus putrescentiae; conditions: impregnated fabric disc bioassay against Tyrophagus putrescentiae
[2] = test system: Periplaneta americana (the American Cockroach) and Blaberus discoidalis (discoids)

SMILES	50% lethal dose value [1] [g/mL]	concentration abolishing spontaneous foregut contractions (together with response to electrical stimulation) ([2]; foregut) [mM]	threshold for increased spontaneous firing (abdominal nerve cord) ([2]; lower doses, impulses recorded extracellularly) [µM]
O=C(OCc1ccccc1)c1ccccc1 [benzyl benzoate]	1.27		
CC(C)=CCC/C(C)=C/CO [geraniol]	1.95	2	250
